# Test results: patent publication US9745551B2, “Mesenchymal-like stem cells derived from human embryonic stem cells, methods and uses thereof” (IMSTEM BIOTECHNOLOGY, INC., priority 2012, dated 2017)
# Tested on: hES cells
# Assay: Embryoid body (EB) and hemangioblast formation from hESC cultured with BIO
# Type: cell-based, human
# Description: Four hESC cell lines were used: H9 (derived from WiCell Research Institute) (Thomson et al. (1998)); CT2 (derived from University of Connecticut Stem Cell Core (Lin et al. (2010)); MA09 (an FDA approved, clinical-grade cell line derived at Advanced Cell Technology, Inc.) (Klimanskaya et al. (2006)); and ES03-Envy (Envy, a GFP-labeled line, derived at ES International) (Costa et al. (2005)). These cell lines were cultured on Matrigel (BD Biosciences, San Jose, Calif.) and cultured in TeSR1 medium, (Stem Cell Technologies, Vancouver, Canada), with or without adding of 0.05-0.2 μM of BIO (6-Bromoindirubin-3′-oxime (CAS 667463-62-9)).
# hESC cells were then differentiated into EB cells and then enriched for HB as previously described (Lu et al. (2008); Lu et al. (2007)). 50-80% confluent hEs cell on the Matrigel plate were digested with Dispase (1 mg/ml for 5 to 10 minutes) and then washed with EB formation basal medium, HPGM (Lonza, Walksville, Md.), or STEMLINE I/II Hematopoietic Stell Cell Expansion Medium (Sigma, St. Louis, Mo.), or StemSpan H3000 (Stem Cell Technologies, Vancouver, Canada), or IMDM with 10% FBS, or DMEDM/F12 with 10% FBS. Cells were then cultured in EB formation medium supplemented with 50 ng/ml of VEGF (Peprotech) and 50 ng/ml of BMP4 (Stemgent) for 48 hours on ultra-low plate at a density of about 2-3 million cells/ml. After 48 hours, half the culture medium was replaced with fresh EB formation medium plus 25-50 ng/ml of bFGF.
# Four days later, EB cells formed in the medium were harvested and dissociated into single cells with TrypLE (Invitrogen) at 37° C. for 2-3 minutes. Cells were washed and resuspended at 1-5 million cells/ml in EB formation basal medium. The single cell suspension were then mixed at 1:10 with Hemangioblast Growth Medium (Stem Cell Technologies, Vancouver, Canada). […]
structure (smiles),measurement,setting,value
"O=C1Nc2cc(Br)ccc2/C1=C1/Nc2ccccc2/C1=N\O [BIO, (2′Z,3′E)-6-Bromoindirubin-3′-oxime]",size and yield of the EB culture,BIO in the mTesr1 medium,increase
same,total EB number increase,BIO in the mTesr1 medium,3 folds
same,percentage of CD45 cell differentiation (indicator of hemangioblast differentiation efficiency),BIO treatment compared to traditional mTesr1 medium,tripled
